According to ChEMBL document CHEMBL5252623, “Discovery of 3-phenyl-1,2,4-oxadiazole derivatives as a new class of SARS-CoV-2 main protease inhibitors” (Bioorg Med Chem Lett, 2023):

What follows are compounds tested against Replicase polyprotein 1ab (Severe acute respiratory syndrome coronavirus 2, UniProt P0DTD1) (assay: Inhibition of SARS-CoV-2 main protease expressed in Escherichia coli BL21 (DE3) using MDA-AVLQSGFR-Lys(Dnp)-Lys-NH2 as substrate incubated for 10 mins by FRET analysis).

`O=C(CCc1ccccc1)NCc1nc(-c2ccc(C(F)(F)F)cc2)no1` and `O=C(NCc1nc(-c2ccc(C(F)(F)F)cc2)no1)c1ccccc1` are within 1.5-fold of each other in IC50: 90.5 µM for the first, 62 µM for the second.

`CC1=C(c2ccccc2)C1C(=O)NC(Cc1cccc(F)c1)c1nc(-c2ccc(C(F)(F)F)cc2)no1` (stereo not given) and `CC1=C(c2ccccc2)C1C(=O)NC(Cc1ccc(F)cc1)c1nc(-c2ccc(C(F)(F)F)cc2)no1` (stereo not given) are within 1.5-fold of each other in IC50: 14.2 µM for the first, 16.5 µM for the second.

First: CC1=C(c2ccccc2)C1C(=O)NCc1nc(-c2cccc(C(F)(F)F)c2)no1 (stereo not given)
Second: CC1=C(c2ccccc2)C1C(=O)NCc1nc(-c2ccc(C(F)(F)F)cc2)no1 (stereo not given)
The IC50 of the first is 2.1-fold higher: 14.3 µM for the first, 6.71 µM for the second.

`CC1=C(c2ccccc2)C1C(=O)NC(Cc1ccccc1F)c1nc(-c2ccc(C(F)(F)F)cc2)no1` (stereo not given) and `CC1=C(c2ccccc2)C1C(=O)NC(Cc1ccccc1)c1nc(-c2ccc(C(F)(F)F)cc2)no1` (stereo not given) are within 1.5-fold of each other in IC50: 7.48 µM for the first, 5.27 µM for the second.

Going from `O=C(/C=C/c1ccccc1)NCc1nc(-c2ccc(C(F)(F)F)cc2)no1` to `O=C(/C=C/c1ccccn1)NCc1nc(-c2ccc(C(F)(F)F)cc2)no1`, the IC50 rises from 46.3 µM to 102 µM (2.2-fold).

First: CC1=C(c2ccccc2)C1C(=O)NC(CC1CCCCC1)c1nc(-c2ccc(C(F)(F)F)cc2)no1 (stereo not given)
Second: CC1=C(c2ccccc2)C1C(=O)NC(CC1CC1)c1nc(-c2ccc(C(F)(F)F)cc2)no1 (stereo not given)
The IC50 of the first is 4-fold lower: 19.4 µM for the first, 76.8 µM for the second.

`O=C(/C=C/c1ccco1)NCc1nc(-c2ccc(C(F)(F)F)cc2)no1` and `O=C(/C=C/c1cccs1)NCc1nc(-c2ccc(C(F)(F)F)cc2)no1` are within 1.5-fold of each other in IC50: 60.5 µM for the first, 54.6 µM for the second.

`CC1=C(c2ccccc2)C1C(=O)NCc1nc(-c2ccccc2)no1` (stereo not given) and `CC1=C(c2ccccc2)C1C(=O)NCc1nc(-c2ccccc2C(F)(F)F)no1` (stereo not given) are within 1.5-fold of each other in IC50: 79.6 µM for the first, 66.9 µM for the second.

Going from `O=C(C#Cc1ccccc1)NCc1nc(-c2ccc(C(F)(F)F)cc2)no1` to `C/C=C/C(=O)NCc1nc(-c2ccc(C(F)(F)F)cc2)no1`, the IC50 rises from 46.9 µM to 250 µM (5.3-fold).

Going from `CC1=C(c2ccccc2)C1C(=O)NC(Cc1ccc2ccccc2c1)c1nc(-c2ccc(C(F)(F)F)cc2)no1` (stereo not given) to `CC1=C(c2ccccc2)C1C(=O)NC(Cc1cc2ccccc2[nH]1)c1nc(-c2ccc(C(F)(F)F)cc2)no1` (stereo not given), the IC50 rises from 6.47 µM to 14.7 µM (2.3-fold). The first is the more potent here.
